According to patent US20240158393A1, “PYRIDONE COMPOUNDS AND METHODS OF USE” (Exelixis, Inc., priority 2021, published 2024):

Experiments:
Human Axl = molecular target: T1, Human Axl (Homo sapiens, UniProt P30530); test: Human AXL kinase assay (33P radiometric / HTRF KinEase); format: biochemical; conditions: protocols of Examples A-1 and/or A-2
T1 construct: Human AXL (residues 464-885)
T1 sequence (P30530 1-894 Q764R): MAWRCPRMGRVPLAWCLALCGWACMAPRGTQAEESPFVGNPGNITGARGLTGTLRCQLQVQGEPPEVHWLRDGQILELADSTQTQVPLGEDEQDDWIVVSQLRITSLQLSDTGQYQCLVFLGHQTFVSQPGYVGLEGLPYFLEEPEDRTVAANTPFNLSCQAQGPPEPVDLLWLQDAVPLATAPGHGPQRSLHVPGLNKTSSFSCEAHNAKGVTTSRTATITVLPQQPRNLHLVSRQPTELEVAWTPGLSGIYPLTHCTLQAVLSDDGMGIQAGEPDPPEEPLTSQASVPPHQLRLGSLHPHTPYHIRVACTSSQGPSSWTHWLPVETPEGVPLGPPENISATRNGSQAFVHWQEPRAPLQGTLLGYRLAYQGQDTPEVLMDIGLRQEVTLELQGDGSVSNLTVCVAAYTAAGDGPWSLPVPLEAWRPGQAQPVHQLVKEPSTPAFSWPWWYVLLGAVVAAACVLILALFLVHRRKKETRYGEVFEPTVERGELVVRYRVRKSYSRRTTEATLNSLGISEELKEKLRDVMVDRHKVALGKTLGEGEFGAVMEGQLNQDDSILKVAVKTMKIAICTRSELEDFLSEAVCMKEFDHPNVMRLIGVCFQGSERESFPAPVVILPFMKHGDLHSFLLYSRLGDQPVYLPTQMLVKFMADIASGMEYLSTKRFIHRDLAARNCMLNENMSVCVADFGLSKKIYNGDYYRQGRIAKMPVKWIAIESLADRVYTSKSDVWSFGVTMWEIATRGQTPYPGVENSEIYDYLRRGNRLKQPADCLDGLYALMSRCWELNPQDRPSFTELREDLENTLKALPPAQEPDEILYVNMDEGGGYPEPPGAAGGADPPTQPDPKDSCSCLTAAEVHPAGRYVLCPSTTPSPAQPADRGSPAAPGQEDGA
Procedure: (§1) Kinase activity and compound inhibition were investigated using the ^33P-Phosphoryl transfer radiometric kinase assay, performed using the KinaseProfiler™ service of Eurofins Pharma Discovery Services UK Limited. Dose-response experiments were performed using nine compound concentrations in a 96-well microtiter plate. For each assay, all compounds were prepared to a 50× final assay concentration (50 μM) in 100% DMSO, then diluted in a half-log series, with the final top concentration at 1 μM. This working stock of the compound was added to the assay well as the first component in the reaction, followed by the remaining components as detailed in the following assay protocols below. The positive control wells (100% kinase activity) contain all components of the reaction including 2% DMSO (control for solvent effects), except the compound of interest. Blank wells contain all components of the reaction, with the reference inhibitor, staurosporine. This reference compound was used to abolish kinase activity and generated the 0% kinase activity base-line. IC50 values were calculated by nonlinear regression analysis using the sigmoidal dose-response (variable slope) curve fit on XLFit version 5.3 (ID Business Solutions).
(§2) Kinase activity and compound inhibition were also investigated using the HTRF® KinEase assay (Cisbio Cat #62TKOPEB) per manufacturer's instructions. In short, compounds were delivered in 300 nL volumes at 10 different concentrations in DMSO (3% final) to empty 384-well assay plates (Corning cat #3824). A mixture of enzyme, 1 μM biotinylated peptide substrate, and buffer in 10 μL volume was added. The assay was started upon the addition of ATP (at Km). The 10 μL reaction was incubated at room temperature. The reaction was stopped upon the addition of detection buffer containing streptavidin-XL665 (5 μL) and TK antibody-Eu3+(5 μL). After a 60 min incubation at room temperature, the fluorescence at 665 nm and 620 nm was read on an Envision microplate reader (Perkin Elmer).
(§3) Kinase activity normalized to DMSO (100% activity) and reference compound at 1 μM and (0% activity) was calculated using the fluorescence ratio […]. IC50 values were calculated by nonlinear regression analysis using a 4-parameter logistic curve fit in ActivityBase XE (IDBS).
Example A-1: Human Axl (residues H473-A894 with Q764R, 161 nM) was incubated with 8 mM MOPS pH 7.0, 0.2 mM EDTA, 250 μM KKSRGDYMTMQIG (SEQ ID NO:1), 10 mM magnesium acetate and 10 μM [γ-^33P-ATP]. The reaction was initiated by the addition of the Mg/ATP mix. After incubation for 40 minutes at room temperature, the reaction was stopped by the addition of phosphoric acid to a concentration of 0.5%. A reaction aliquot of 10 μL was then spotted onto a P30 filtermat and washed four times for 4 minutes in 0.425% phosphoric acid and once in methanol prior to drying and scintillation counting. Incorporated ^33P was measured using the Wallac Microbeta scintillation counter (Perkin Elmer).
Example A-2: Human AXL (residues 464-885; CarnaBio, 1 ng/well) was also incubated with enzymatic buffer (Cisbio) supplemented with 5 mM MgCl2, 1 mM DTT, and Supplemental Enzymatic Buffer (SEB; Cisbio). The mixture was added to the pre-plated compounds. The reaction was initiated upon addition of ATP at Km (1.0 μM). The reaction was incubated at room temperature for 50 min and stopped upon the addition of SA-XL665 and TK-antibody both diluted in EDTA-containing kinase detection buffer (Cisbio). The kinase activity was calculated as stated above and the IC50 values were reported.

Human Mer = molecular target: T2, Human Mer (Homo sapiens, UniProt Q12866); test: Human Mer kinase assay (33P radiometric / HTRF KinEase); format: biochemical; conditions: protocols of Examples C-1 and/or C-2
T2 construct: Human Mer (residues R557-E882 with H628Q and R794A, 0.7 nM); purchased Eurofins Pharma Discovery Services UK Limited (KinaseProfiler service)
T2 sequence (Q12866 557-882 limits assumed): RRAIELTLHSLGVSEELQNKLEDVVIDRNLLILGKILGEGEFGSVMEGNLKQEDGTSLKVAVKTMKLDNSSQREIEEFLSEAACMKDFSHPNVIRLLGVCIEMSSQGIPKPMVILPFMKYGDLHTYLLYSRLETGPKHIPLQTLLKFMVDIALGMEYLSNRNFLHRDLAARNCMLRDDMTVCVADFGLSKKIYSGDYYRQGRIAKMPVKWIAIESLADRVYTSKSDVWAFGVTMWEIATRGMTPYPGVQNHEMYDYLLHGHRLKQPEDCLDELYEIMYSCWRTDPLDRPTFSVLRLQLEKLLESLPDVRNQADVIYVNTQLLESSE
Procedure: as §1, §2, §3
Example C-1: Human Mer (residues R557-E882 with H628Q and R794A, 0.7 nM) was incubated with 8 mM MOPS pH 7.0, 0.2 mM EDTA, 30 mM NaCl, 250 μM GGMEDIYFEFMGGKKK (SEQ ID NO: 2), 10 mM magnesium acetate, and 10 μM [γ-^33P-ATP]. The reaction was initiated by the addition of the Mg/ATP mix. After incubation for 40 minutes at room temperature, the reaction was stopped by the addition of phosphoric acid to a concentration of 0.5%. A reaction aliquot of 10 μL was then spotted onto a P30 filtermat and washed four times for 4 minutes in 0.425% phosphoric acid and once in methanol prior to drying and scintillation counting. Incorporated ^33P was measured using the Wallac Microbeta scintillation counter (Perkin Elmer).
Example C-2: Human MER (residues 528-999; CarnaBio, 1 ng/well) was also incubated with enzymatic buffer (Cisbio) supplemented with 5 mM MgCl2 and 1 mM DTT. The mixture was added to the pre-plated compounds. The reaction was initiated upon addition of ATP at Km (40 μM). The reaction was incubated at room temperature for 60 min and stopped upon the addition of SA-XL665 and TK-antibody both diluted in EDTA-containing kinase detection buffer (Cisbio). The kinase activity was calculated as stated above and the IC50 values were reported.

IC50 (Human Axl): ≤ 100 nM
IC50 (Human Mer): ≤ 100 nM
SMILES: COCCOc1cnc2c(Oc3ccc(NC(=O)c4c(C)nc(C)c(C5=CCCC5)c4O)cc3F)ccnc2c1 [Compound 101, 5-(Cyclopenten-1-yl)-N-[3-fluoro-4-[[7-(2-methoxyethoxy)-1,5-naphthyridin-4-yl]oxy]phenyl]-4-hydroxy-2,6-dimethylpyridine-3-carboxamide]
